The numbers were not newly measured in US5047532A, “Isolation and elucidation of Cephalostatins 5 and 6” (Arizona Board of Regents, acting on behalf of Arizona State …, priority 1989, dated 1991), which cites them from elsewhere.

The data set has as its system murine P388 lymphocytic leukemia (PS cell line). The note with it: Pettit et al, J. Chem. Soc. Chem. Commun. 85 (1988).

Consider `C[C@@H]1[C@]2(O[C@H]3C=C4[C@@H]5CC[C@H]6Cc7nc8c(nc7C[C@]6(C)[C@H]5C[C@@H](O)[C@]4(C)[C@]31O)C[C@@H]1CC[C@H]3C4=CC[C@@H]5[C@H](C)[C@@]6(OC[C@]45C(=O)C[C@@H]3[C@@]1(C)C8)OC(C)(C)C[C@H]6O)O[C@](C)(CO)C[C@H]2O` [Cephalostatin 1], for which the “murine P388 lymphocytic leukemia (PS system) cell growth inhibition” value is listed as “cell growth inhibitor”.
